Columns and labels:
[1] = test system: mouse endothelial cells (bEnd3); assay: bEnd3 endothelial cell proliferation (BrdU incorporation); assay type: cell-based
Experimental: Similar cellular proliferation assays were performed using mouse endothelial cells (bEnd3) that constitutively express APJ. […] SU1498 was included in proliferation cultures at a 25 μM concentration, and results were assayed using BrdU incorporation.
Proliferation inhibition experiments with the bEnd3 cells also were carried out using FGF (50 ng/ml) or the FGF pathway inhibitor SU5402 (FIG. 19). SU5402 was included in proliferation cultures at a 20 μM concentration, and results were assayed using BrdU incorporation.

[2] = test system: apelin expression; assay: Apelin expression in rat cardiac myocytes under cobalt chloride (hypoxia mimic), PCR; assay type: cell-based
Experimental: Because HIF-1α consensus sites are present in the apelin regulatory region, experiments were conducted to determine whether apelin expression is hypoxia responsive and regulated by HIF-1α. Upregulation of apelin expression under hypoxic conditions would be consistent with a role for apelin in promotion of tumor angiogenesis. Preliminary experiments were carried out using primary rat cardiomyocyte cells in culture and treatment with cobalt chloride. This procedure is accepted as an equivalent to culturing cells under hypoxic conditions because HIF-1α is a metal responsive transcription protein (Ladoux and Frelin, 1994; Piret et al., 2002; Maxwell and Salnikow, 2004). Fetal rat cardiac myocytes were plated and cultured in DMEM (Invitrogen, Carlsbad, Calif.) supplemented with 10% fetal calf serum and penicillin/streptomyocin at 37° C. After four days of culture, medium was removed, and cells were treated with fresh media containing 150 μM Cobalt Chloride (Piret et al., 2002). […] After 4 hours of culture, cells were harvested, and total RNA was extracted using the Trizol procedure according to the manufacturers recommendations (Invitrogen, Carlsbad, Calif.).
Following PCR, amplification products were fractionated on an agarose gel and visualized using ethidium bromide staining under ultraviolet light (FIG. 12). […]

[3] = test system: BAE/APJ#2 cells; settings: 10 ng/ml in bottom chamber, 16 hours
Experimental: Bovine aortic endothelial cells (BAE) were cultured in DMEM supplemented with 10% fetal bovine serum (FBS) and penicillin/streptomycin. For generation of stable cell lines expressing APJ, the mouse APJ coding region was cloned into the pcDNA 3.1 vector downstream of the CMV promoter, in frame with a myc epitope at the C-terminal end of the protein, and upstream of the neomycin gene. Bovine aortic endothelial (BAE) cells were transfected with this construction using the Superfect transfection kit (Qiagen) and selected for resistance to G418 (600 μg/ml). Colonies were isolated and screened using RT-PCR for expression of mouse APJ and also by immunocytochemistry for expression of the myc epitope.
Cell migration assays were performed using Transwell cell culture migration chambers (Becton Dickinson) with 8 micron pore size. BAE/APJ#2 cells were plated in serum free conditions in 100 μl at a concentration of 1×10^5 ml in the upper chamber of the migration chamber. Following cell attachment to the membrane, 10 ng/ml of growth factor was added to the bottom chamber, in a total volume of 0.5 ml. […] Cells attached to the membrane in the lower chamber were stained with DAPI, and 3 random fields were counted for each experimental condition.

[4] = test system: BAE/APJ#2 cells (bovine aortic endothelial cells expressing mouse APJ); assay: BAE/APJ#2 endothelial cell proliferation (BrdU incorporation); assay type: cell-based; settings: SU1498 10 ng/ml
Experimental: SU1498 was included in proliferation cultures at a concentration of 10 ng/ml and results were assayed using BrdU incorporation. After growth factor incubation, BrdU was added to each well at a final concentration of 10 μM for 2 hours, cells were washed, and fixed for BrdU immunocytochemistry.
Cells were fixed in 100% ice cold methanol at 4° C. for 2 hours to overnight. Prior to staining, cells were air dried and rehydrated for 3 minutes with PBS buffer. DNA was denatured at 37° C. with 2 M HCl, and neutralized with 2 washes for 5 minutes in 0.1 M borate buffer (pH 8.5). […] FITC-labeled anti-BrdU antibody (5 μg/ml) in block was added for 1 hour at room temperature. Cells were counterstained with propidium iodide following several washes in PBS buffer. For each experiment, 4 random fields were photographed for determination of percentage BrdU labeling.

[5] = test system: lymphatic endothelial cells; assay: In vivo lymphatic cell number assay, quail CAM (Prox1 staining); settings: collagen disk with 50 ng apelin or 100 ng VEGF-C on CAM of 7 day quail embryos, 18 hours
Experimental: All experiments were carried out using chorioallantoic membranes (CAMs) of quail embryos. Quail embryos used for the lymphatic experiments were 7 days old. Collagen purified from rat tails (Bernanke and Markwald, 1982) was polymerized in 2 mm disks at a final concentration of approximately 1.6 mg/ml in standard phosphate buffered saline (PBS). The total volume of the collagen disk was approximately 10 μl. For experimental treatments, the collagen disks were supplemented with either 50 ng of apelin peptide or 100 ng of VEGF-C protein prior to polymerization at 37° C. for 30 minutes. The VEGF-C was a positive control for these experiments. (Recombinant Human VEGF-C (Cys156Ser), R&D Systems, cat # 752-vc). Apelin peptide was synthesized by Sigma-Genosys (>90% purity). […]
(§1) The samples were incubated with primary antibody (Prox1, Research Diagnostics, cat # RDI-102PA30, diluted to 2 μg/ml final concentration) for 4 hours at room temperature or overnight at 4° C. […] Both the lymphatic cell number as well as the number of lymphatic branches were determined.
Assays for lymphatic cell number were carried out in areas of the CAM that were close to the location of the collagen disk as described above. Since Prox1 specifically stains lymphatic endothelial cell nuclei, the number of cells in the lymphatic branches was counted directly. […]

[6] = test system: lymphatic vessels; assay: In vivo lymphatic vessel branching assay, quail CAM; settings: collagen disk with 50 ng apelin or 100 ng VEGF-C on CAM of 7 day quail embryos, 18 hours
Experimental: All experiments were carried out using chorioallantoic membranes (CAMs) of quail embryos. Quail embryos used for the lymphatic experiments were 7 days old. Collagen purified from rat tails (Bernanke and Markwald, 1982) was polymerized in 2 mm disks at a final concentration of approximately 1.6 mg/ml in standard phosphate buffered saline (PBS). The total volume of the collagen disk was approximately 10 μl. For experimental treatments, the collagen disks were supplemented with either 50 ng of apelin peptide or 100 ng of VEGF-C protein prior to polymerization at 37° C. for 30 minutes. The VEGF-C was a positive control for these experiments. (Recombinant Human VEGF-C (Cys156Ser), R&D Systems, cat # 752-vc). Apelin peptide was synthesized by Sigma-Genosys (>90% purity).
For lymphangiogenesis assays, the CAMs of 7 day quail embryos were exposed, in ovo, and the collagen disks were placed directly onto the surface of the CAM. […]
as §1
Both blood vessels and lymphatic vessels were stained with the QH-1 antibody. […] The number of lymphatic vessels branching away from blood vessels (towards the collagen disk) were counted. […]

For Cc1c[nH]c(/C=C2\C(=O)Nc3ccccc32)c1CCC(=O)O [SU5402], the “effect on FGF-mediated proliferation” value ([1]; SU5402 20 μM, FGF 50 ng/ml) was “partially inhibited the proliferative effect of FGF” and the “effect on apelin-stimulated cellular proliferation” value ([1]; SU5402 20 μM, apelin 10 ng/ml) was “did not have a significant effect on apelin-stimulated cellular proliferation”.

[Cl][Co][Cl] [Cobalt Chloride] was tested, and the apelin expression ([2]; 150 μM Cobalt Chloride, 4 hours, fetal rat cardiac myocytes) was “significantly increased” and the apelin expression ([2]; Cobalt chloride 30 μg/ml, rat cardiac myocytes) was “induced”.

In the case of VEGF, the “endothelial cell migration (cells per field)” value [3] is reported as “increase in migration” and the “cellular proliferation of endothelial cells” value ([1]; apelin 10 ng/ml or VEGF 50 ng/ml, 0.1 ng/ml to 1 μg/ml (FIG. 17)) is reported as “proliferate upon the addition of VEGF or apelin”.

CC(C)c1cc(/C=C(\C#N)C(=O)NCCCc2ccccc2)cc(C(C)C)c1O [SU1498] was tested, and the “effect on VEGF-mediated proliferation” value ([4]; VEGF 10 ng/ml) was “partially inhibits VEGF-mediated proliferation”, the “effect on apelin-mediated proliferation” value ([4]; apelin 10 ng/ml) was “no significant effect on apelin-mediated proliferation” and the “effect on VEGF-mediated proliferation” value ([1]; SU1498 25 μM, VEGF 50 ng/ml) was “partially inhibits VEGF-mediated proliferation”. For the same molecule, the “effect on apelin-mediated proliferation” value ([1]; SU1498 25 μM, apelin 10 ng/ml) was “no significant effect on apelin-mediated proliferation”.

B1: VEGF-C: Recombinant Human VEGF-C (Cys156Ser), R&D Systems; positive control for lymphangiogenesis (protein, UniProt P49767 112-227, looked up, variant C156S)
Vascular endothelial growth …: AHYNTEILKSIDNEWRKTQCMPREVCIDVGKEFGVATNTFFKPPSVSVYRCGGCCNSEGLQCMNTSTSYLSKTLFEITVPLSQGPKPVTISFANHTSCRCMSKLDVYRQVHSIIRR
For B1, the “lymphatic cell number (Prox1 positive nuclei)” value [5] was “mitogenic factor for lymphatic endothelial cells” and the “number of lymphatic vessels branching away from blood vessels” value [6] was “positive regulator of lymphatic branching angiogenesis”.

Source: US20060159676A1, “Methods for modulating angiogenesis, lymphangiogenesis, and apoptosis with apelin compositions” (priority 2005, published 2006)
